# Results from paper PMC6193938, “Characterization of a novel AICARFT inhibitor which potently elevates ZMP and has anti-tumor activity in murine models” (Scientific Reports, 2018).
# Where two headings read alike, the source gives them in different places.
# Test system: panel of human cell lines
# Assay: In vitro proliferation assay, Cell Titer Glo, two doubling times, 298 cell lines
# Type: cell-based
# Conditions: read-out: ABS_IC50_VALUE
# From the text: Cell Titer Glo measures ATP, thus the IC50s represent both the effect on purine production and cell proliferation, which are related. […] Folates are actively taken up in cells by reduced folate carrier (SLC19A1), proton-coupled folate transporter (SLC46A1), and the FOLR1 folate receptor[17]. Once inside the cell, folates are trapped by polyglutamation catalyzed by folylpolyglutamate synthetase (FPGS). […] Gene expression data for ATIC, GART, APRT, HPRT, FOLR1, SLC19A1, SLC46A1 & FPGS are shown in Fig. 2, since these genes were anticipated to predict sensitivity. […] The MDA-MB-231 cell line is reduced folate carrier (SLC19A1) negative due to epigenetic silencing.
# Cells were cultured using recommended culture conditions unless noted otherwise (Supplemental Table 3). Cells were plated, dosed with compound and incubated at 37 °C for approximately 2 doubling times as determined for each cell line. Cell Titer Glo (Promega) assay was used to measure proliferation according to manufacturer’s recommendations by measuring luminescence with Flexstation3 (Molecular Devices) with 500 ms integration time. […] The % response was fit to a four-parameter logistic equation using ACTIVITYBASE 4.0 to determine the absolute IC50 values.
# Cell Lines: Cell lines of adrenal gland, autonomic ganglia, biliary tract, blood ALL, blood AML, blood CML, blood hodgkin lymphoma, blood lymphoma, blood multiple myeloma, blood NHL, blood RAEB, bone, breast ER+, breast fibroblast, breast fibroblast mixed, breast HER2, breast normal, breast triple negative, cervix, CNS, endometrium, eye, fibroblast normal, kidney ns, kidney renal, large intestine, liver, liver normal, lung adenocarcinoma, lung ns, lung NSCLC, lung NSCLC mixed, lung SCLC, lung squamous, melanoma, melanoma normal, esophagus adenocarcinoma, esophagus ns, esophagus squamous, ovary, pancreas adenocarcinoma, pancreas ductal carcinoma, pancreas ns, pleura mesothelioma, prostate adenocarcinoma, prostate small cell, salivary gland, small intestine, soft tissue, stomach, testis, thyroid, thyroid squamous, umbilical vein endothelial cell normal, upper aerodigestive tract squamous, urinary tract ns, urinary tract transitional cell carcinoma, and vulva squamous origin were obtained from ATCC, CASTCC, CLS, DSMZ, ECACC, HSRRB, ICLC, JCRB, NCI, Riken and SNU cell banks. The murine A9 cell line was acquired from the ATCC (CCL-1.4).
structure (smiles),measurement,setting,value
"O=c1[nH]ccc2cc(F)c(NS(=O)(=O)c3ccc(N4CC[C@@H](O)C4)s3)cc12 [LSN3213128, N-(6-Fluoro-1-oxo-1,2-dihydroisoquinolin-7-yl)-5-[(3R)-3-hydroxypyrrolidin-1-yl]thiophene-2-sulfonamide]",IC50,"Homo sapiens, 22Rv1, 22RV1, prostate",13.7 µM
same,IC50,"Homo sapiens, 769-P, kidney",1.21 µM
same,IC50,"Homo sapiens, 5637, urinary tract",2.88 µM
same,IC50,"Homo sapiens, 8505C, thyroid",> 20 µM
same,IC50,"Homo sapiens, A101D, skin",2.22 µM
same,IC50,"Homo sapiens, A204, A204, soft tissue",> 20 µM
same,IC50,"Homo sapiens, A253, A253, salivary gland",> 20 µM
same,IC50,"Homo sapiens, A498, A498, kidney",12.2 µM
same,IC50,"Homo sapiens, A549, A549, lung",> 20 µM
same,IC50,"Homo sapiens, A2058, A2058, skin",> 20 µM
same,IC50,"Homo sapiens, A2780, A2780, ovary",3.23 µM
same,IC50,"Homo sapiens, ACHN, kidney",1.94 µM
same,IC50,"Homo sapiens, AGS, stomach",> 20 µM
same,IC50,"Homo sapiens, ASPC1, AsPC-1, pancreas",> 20 µM
same,IC50,"Homo sapiens, AU565, AU565, breast",0.58 µM
same,IC50,"Homo sapiens, BCP-1, BCP-1, haematopoietic and lymphoid tissue",11.1 µM
same,IC50,"Homo sapiens, BT-20, BT-20, breast",> 20 µM
same,IC50,"Homo sapiens, BT-474, BT-474, breast",> 20 µM
same,IC50,"Homo sapiens, BT-483, BT-483, breast",> 20 µM
same,IC50,"Homo sapiens, BT-549, BT-549, breast",> 20 µM
same,IC50,"Homo sapiens, BXPC-3, BxPC-3, pancreas",4.49 µM
same,IC50,"Homo sapiens, C2BBe1, C2BBe1, large intestine",> 20 µM
same,IC50,"Homo sapiens, C3A, liver",25.2 µM
same,IC50,"Homo sapiens, C32, skin",> 20 µM
same,IC50,"Homo sapiens, CA46, CA46, haematopoietic and lymphoid tissue",> 20 µM
same,IC50,"Homo sapiens, CAKI-1, Caki-1, kidney",> 20 µM
same,IC50,"Homo sapiens, CAKI-2, Caki-2, kidney",5.03 µM
same,IC50,"Homo sapiens, CAMA-1, CAMA-1, breast",> 20 µM
same,IC50,"Homo sapiens, CAPAN-1, CAPAN-1, pancreas",> 20 µM
same,IC50,"Homo sapiens, CCF-STTG1, CCF-STTG1, central nervous system",> 20 µM
same,IC50,"Homo sapiens, CFPAC-1, CFPAC-1, pancreas",> 20 µM
same,IC50,"Homo sapiens, CHL-1, CHL-1, skin",> 20 µM
same,IC50,"Homo sapiens, CHP-212, CHP-212, autonomic ganglia",> 20 µM
same,IC50,"Homo sapiens, COLO 205, COLO-205, large intestine",1.68 µM
same,IC50,"Homo sapiens, COLO-320-HSR, large intestine",3.3 µM
same,IC50,"Homo sapiens, COLO-680N, oesophagus",2.05 µM
same,IC50,"Homo sapiens, COLO-741, COLO-741, large intestine",1.58 µM
same,IC50,"Homo sapiens, COR-L23, COR-L23, lung",1.4 µM
same,IC50,"Homo sapiens, Calu-1, Calu-1, lung",> 20 µM
same,IC50,"Homo sapiens, Calu-3, Calu-3, lung",2.27 µM
same,IC50,"Homo sapiens, Calu-6, Calu-6, lung",11.9 µM
same,IC50,"Homo sapiens, Capan-2, Capan-2, pancreas",15.3 µM
same,IC50,"Homo sapiens, ChaGo-K-1, ChaGo-K-1, lung",> 20 µM
same,IC50,"Homo sapiens, D341 Med, central nervous system",> 20 µM
same,IC50,"Homo sapiens, DB, haematopoietic and lymphoid tissue",10.8 µM
same,IC50,"Homo sapiens, DMS-53, DMS-53, lung",> 20 µM
same,IC50,"Homo sapiens, Daoy, central nervous system",1.02 µM
same,IC50,"Homo sapiens, Daudi, haematopoietic and lymphoid tissue",1.1 µM
same,IC50,"Homo sapiens, EB1, haematopoietic and lymphoid tissue",1.28 µM
same,IC50,"Homo sapiens, EB2, haematopoietic and lymphoid tissue",> 20 µM
same,IC50,"Homo sapiens, ES-2, ovary",> 20 µM
same,IC50,"Homo sapiens, F-36P, haematopoietic and lymphoid tissue",0.79 µM
same,IC50,"Homo sapiens, G-361, G-361, skin",> 20 µM
same,IC50,"Homo sapiens, G-401, G-401, kidney",> 20 µM
same,IC50,"Homo sapiens, G-402, G-402, soft tissue",> 20 µM
same,IC50,"Homo sapiens, GCT, soft tissue",> 20 µM
same,IC50,"Homo sapiens, GI-1, central nervous system",15.5 µM
same,IC50,"Homo sapiens, GP2d, large intestine",14.3 µM
same,IC50,"Homo sapiens, HCC38, HCC38, breast",> 20 µM
same,IC50,"Homo sapiens, HCC70, HCC70, breast",> 20 µM
same,IC50,"Homo sapiens, HCC202, HCC202, breast",> 20 µM
same,IC50,"Homo sapiens, HCC827, HCC827, lung",16 µM
same,IC50,"Homo sapiens, HCC1143, HCC1143, breast",> 20 µM
same,IC50,"Homo sapiens, HCC1187, HCC1187, breast",> 20 µM
same,IC50,"Homo sapiens, HCC1395, HCC1395, breast",> 20 µM
same,IC50,"Homo sapiens, HCC1419, HCC1419, breast",10.4 µM
same,IC50,"Homo sapiens, HCC1599, HCC1599, breast",3.65 µM
same,IC50,"Homo sapiens, HCC1806, HCC1806, breast",> 20 µM
same,IC50,"Homo sapiens, HCC1937, HCC1937, breast",18.5 µM
same,IC50,"Homo sapiens, HCC1954, HCC1954, breast",0.09 µM
same,IC50,"Homo sapiens, HCC2218, HCC2218, breast",> 20 µM
same,IC50,"Homo sapiens, HCT-15, HCT-15, large intestine",3.51 µM
same,IC50,"Homo sapiens, HEC-1-A, endometrium",13.6 µM
same,IC50,"Homo sapiens, HGC-27, HGC-27, stomach",> 20 µM
same,IC50,"Homo sapiens, HL-60, HL-60, haematopoietic and lymphoid tissue",> 20 µM
same,IC50,"Homo sapiens, HLE, liver",15 µM
same,IC50,"Homo sapiens, HLF, liver",9.35 µM
same,IC50,"Homo sapiens, HMCB, skin",4.45 µM
same,IC50,"Homo sapiens, HPAF-II, pancreas",11.1 µM
same,IC50,"Homo sapiens, HSC-2, HSC-2, upper aerodigestive tract",1.28 µM
same,IC50,"Homo sapiens, HSC-3, HSC-3, upper aerodigestive tract",7.22 µM
same,IC50,"Homo sapiens, HSC-4, HSC-4, upper aerodigestive tract",2.95 µM
same,IC50,"Homo sapiens, HT1197, HT-1197, urinary tract",0.37 µM
same,IC50,"Homo sapiens, HT-29, HT-29, large intestine",> 20 µM
same,IC50,"Homo sapiens, HT-144, HT-144, skin",> 20 µM
same,IC50,"Homo sapiens, HT-1080, HT-1080, soft tissue",4 µM
same,IC50,"Homo sapiens, HT-1376, HT-1376, urinary tract",0.49 µM
same,IC50,"Homo sapiens, Hs 294T, skin",> 20 µM
same,IC50,"Homo sapiens, Hs 606.T, breast",> 20 µM
same,IC50,"Homo sapiens, Hs 688(A).T, skin",> 20 µM
same,IC50,"Homo sapiens, Hs 695T, skin",> 20 µM
same,IC50,"Homo sapiens, Hs 739.T, breast",> 20 µM
same,IC50,"Homo sapiens, Hs 839.T, skin",> 20 µM
same,IC50,"Homo sapiens, Hs 940.T, skin",> 20 µM
same,IC50,"Homo sapiens, HuCCT-1, HuCCT1, biliary tract",17.1 µM
same,IC50,"Homo sapiens, HuG1-N, stomach",2.53 µM
same,IC50,"Homo sapiens, HuTu80, HUTU-80, small intestine",0.83 µM
same,IC50,"Homo sapiens, Huh-7, HuH-7, liver",12.5 µM
same,IC50,"Homo sapiens, IA-LM, lung",> 20 µM
same,IC50,"Homo sapiens, J82, urinary tract",> 20 µM
same,IC50,"Homo sapiens, JHH7, JHH-7, liver",28.3 µM
same,IC50,"Homo sapiens, K562, K-562, haematopoietic and lymphoid tissue",0.67 µM
same,IC50,"Homo sapiens, KALS-1, KALS-1, central nervous system",> 20 µM
same,IC50,"Homo sapiens, KE-97, KE-97, stomach",1.09 µM
same,IC50,"Homo sapiens, KG-1, haematopoietic and lymphoid tissue",> 20 µM
same,IC50,"Homo sapiens, KLE, endometrium",> 20 µM
same,IC50,"Homo sapiens, KM12, KM12, large intestine",2.05 µM
same,IC50,"Homo sapiens, KNS-42, KNS-42, central nervous system",> 20 µM
same,IC50,"Homo sapiens, KNS-62, KNS-62, lung",16 µM
same,IC50,"Homo sapiens, KNS-81, central nervous system",> 20 µM
same,IC50,"Homo sapiens, KP-4, pancreas",0.74 µM
same,IC50,"Homo sapiens, KU812, KU812, haematopoietic and lymphoid tissue",0.08 µM
same,IC50,"Homo sapiens, KYSE-410, KYSE-410, oesophagus",1.56 µM
same,IC50,"Homo sapiens, Kasumi-6, haematopoietic and lymphoid tissue",> 20 µM
same,IC50,"Homo sapiens, LOUCY, haematopoietic and lymphoid tissue",1.76 µM
same,IC50,"Homo sapiens, LUDLU-1, LUDLU-1, lung",> 20 µM
same,IC50,"Homo sapiens, MCF7, MCF7, breast",11.1 µM
same,IC50,"Homo sapiens, MDA-MB-157, MDA-MB-157, breast",> 20 µM
same,IC50,"Homo sapiens, MDA-MB-415, MDA-MB-415, breast",> 20 µM
same,IC50,"Homo sapiens, MDA-MB-436, MDA-MB-436, breast",> 20 µM
same,IC50,"Homo sapiens, MDA-MB-453, MDA-MB-453, breast",> 20 µM
same,IC50,"Homo sapiens, MDA-MB-468, MDA-MB-468, breast",0.44 µM
same,IC50,"Homo sapiens, MEG-01, MEG-01, haematopoietic and lymphoid tissue",0.29 µM
same,IC50,"Homo sapiens, MG-63, MG-63, bone",> 20 µM
same,IC50,"Homo sapiens, MKN-1, MKN1, stomach",> 20 µM
same,IC50,"Homo sapiens, MKN-45, MKN45, stomach",> 20 µM
same,IC50,"Homo sapiens, MKN-74, MKN74, stomach",> 20 µM
same,IC50,"Homo sapiens, MOLT-4, MOLT-4, haematopoietic and lymphoid tissue",1.11 µM
same,IC50,"Homo sapiens, MSTO-211H, pleura",> 20 µM
same,IC50,"Homo sapiens, Malme-3M, skin",> 20 µM
same,IC50,"Homo sapiens, NCI-H23, NCI-H23, lung",14.4 µM
same,IC50,"Homo sapiens, NCI-H28, NCI-H28, pleura",> 20 µM
same,IC50,"Homo sapiens, NCI-H69, NCI-H69, lung",18.5 µM
same,IC50,"Homo sapiens, NCI-H82, NCI-H82, lung",2.28 µM
same,IC50,"Homo sapiens, NCI-H209, NCI-H209, lung",5.55 µM
same,IC50,"Homo sapiens, NCI-H226, NCI-H226, lung",4.52 µM
same,IC50,"Homo sapiens, NCI-H358, NCI-H358, lung",6.06 µM
same,IC50,"Homo sapiens, NCI-H441, NCI-H441, lung",> 20 µM
same,IC50,"Homo sapiens, NCI-H446, NCI-H446, lung",1.68 µM
same,IC50,"Homo sapiens, NCI-H460, NCI-H460, lung",0.97 µM
same,IC50,"Homo sapiens, NCI-H508, NCI-H508, large intestine",13.1 µM
same,IC50,"Homo sapiens, NCI-H520, NCI-H520, lung",9.66 µM
same,IC50,"Homo sapiens, NCI-H522, NCI-H522, lung",9.92 µM
same,IC50,"Homo sapiens, NCI-H524, NCI-H524, lung",11.3 µM
same,IC50,"Homo sapiens, NCI-H596, NCI-H596, lung",> 20 µM
same,IC50,"Homo sapiens, NCI-H647, NCI-H647, lung",1.4 µM
same,IC50,"Homo sapiens, NCI-H650, NCI-H650, lung",8.6 µM
same,IC50,"Homo sapiens, NCI-H660, NCI-H660, prostate",7.16 µM
